Reference: patent US20090285796A1, “MUTANT JAK3 KINASE IN HUMAN LEUKEMIA” (CELL SIGNALING TECHNOLOGY, INC., priority 2006, published 2009)

Assays:
CMK cells [1] = assay: Apoptosis by annexin V staining with JAK I; assay type: cell-based, human; details: increasing concentrations
Method: (§1) JAK I (Calbiochem, San Diego, Calif.) is a potent inhibitor of the JAK family of kinases, including JAK3. To confirm that JAK3 is driving the proliferation of CMK cells, the effect of JAK I on the growth and/or viability of CMK cells was examined. CMK and K562 cells (as a control) were treated for seventy hours with increasing doses of JAK I inhibitor up to 2 micrograms/ml. The number of viable cells was determined with the CellTiter 96 AQueous One solution cell proliferation assay (Promega). Apoptosis was measured with a fluorescent stain measuring annexin V.

CMK cells [2] = assay: CellTiter 96 AQueous One cell proliferation assay with JAK I; assay type: cell-based, human; details: seventy hours, increasing doses up to 2 micrograms/ml
Method: as §1

STAT5 = assay: Western blot of STAT5 phosphorylation after JAK I; assay type: cell-based, human; details: CMK cells, range of inhibitor concentrations
Method: AML-193, GDM-1, CMK, K562 and Ba/F3 cells were obtained from the German National Resource Centre for Biological Material (DSMZ). GF-D8 cells were generously provided by Dr. Orietta Spinelli, Laboratorio Paolo Belli, Bergamo, Italy. All cell lines were maintained in RPMI 1640 supplemented with 10% FCS, 1 unit/mL penicillin G, and 1 μg/mL streptomycin at 37° C. and 5% CO2. Western blotting was carried out according to standard methods, following the Western Blotting Protocol (Cell Signaling Technology, Inc., 2005-2006 Catalogue).
To further confirm the effect of the JAK I on the CMK cell line, Western blot analysis (as described above) was performed following exposure to a range of inhibitor concentrations, and the activity of the JAK3 downstream target, STAT5 examined (see FIG. 3C).

K562 cells = assay: CellTiter 96 AQueous One cell proliferation assay with JAK I, control cell line; assay type: cell-based; details: control cell line K562, seventy hours, up to 2 micrograms/ml
Method: as §1

[3] = test system: human AML cell line (CMK); details: CMK cells expressing mutant (A572V) JAK3
Excerpt: (§2) CP-690,550, which specifically binds to and blocks the ATP-binding site of JAK3 kinase, thereby preventing phosphorylation and activation of this enzyme, is commercially available and some of its properties have been described. See, e.g. Borne et al., Tranplantation 80 (12): 1756-1764 (2005); Paniagua et al., Tranplantation 80 (9): 1283-1292 (2005).

[4] = test system: control cells that do not express the mutant JAK3 protein; details: control cells not expressing mutant JAK3
Excerpt: as §2

CC(C)(C)c1nc2c3cc[nH]c(=O)c3c3cc(F)ccc3c2[nH]1 [JAK I]
apoptosis as measured by annexin V staining (CMK cells [1]): increase in apoptosis
cell proliferation (CMK cells [2]): inhibition of cell proliferation
viability (CMK cells [2]): significant decrease in viability
phosphorylation of STAT5 (STAT5): inhibited phosphorylation
growth and viability (K562 cells): no significant effect

C[C@@H]1CCN(C(=O)CC#N)C[C@@H]1N(C)c1ncnc2[nH]ccc12 [CP-690,550]
growth and survival [3]: selectively inhibited the growth and survival
growth and survival [4]: not in control cells
